What was measured:
MKNK1 [1] = molecular target: T1, MKNK1 (Homo sapiens, UniProt Q9BUB5, T385D); test: MKNK1 kinase high ATP assay (TR-FRET-based); type: biochemical; conditions: 2 mM ATP, 15 min preincubation
T1 construct: GST (N); purchased Carna Biosciences 02-145; host or cells: insect cells (baculovirus expression system)
Outline: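 TR-FRET read-out (anti-phospho-S6 Ser236 antibody, Eu/XL665) of biotin-peptide phosphorylation (0.06 μM) at high ATP (2 mM final). Enzyme was GST-MKNK1 full length, T344D, pre-bound to compound for 15 min before a 30 min reaction at 22 °C, pH 7.5. Inhibition scaled between no-inhibitor (0%) and no-enzyme (100%) wells.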

MKNK1 [2] = molecular target: T1, MKNK1; test: MKNK1 kinase assay (MKNK1 TR-FRET assay); type: biochemical; conditions: 10 μM ATP, 15 min preincubation

T1 sequence (Q9BUB5 1-424 isoform Q9BUB5-2 T344D): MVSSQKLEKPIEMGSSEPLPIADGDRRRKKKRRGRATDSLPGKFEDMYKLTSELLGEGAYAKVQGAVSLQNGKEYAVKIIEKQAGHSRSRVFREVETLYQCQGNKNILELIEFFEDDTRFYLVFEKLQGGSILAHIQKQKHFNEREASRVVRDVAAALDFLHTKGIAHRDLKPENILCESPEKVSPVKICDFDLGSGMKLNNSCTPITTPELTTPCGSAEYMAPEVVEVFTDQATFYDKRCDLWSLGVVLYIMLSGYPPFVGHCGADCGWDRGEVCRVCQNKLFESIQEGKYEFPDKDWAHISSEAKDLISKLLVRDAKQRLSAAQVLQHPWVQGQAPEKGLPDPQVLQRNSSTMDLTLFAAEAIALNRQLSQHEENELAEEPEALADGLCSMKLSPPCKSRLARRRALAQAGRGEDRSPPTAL

Structure (SMILES) | IC50 (MKNK1 [1]; Table 2c) [nM] | IC50 (MKNK1 [2]; Table 1c) [nM] | also measured
C[C@H](N)COc1ccc2ncc(-c3cc4c(N5CCOC(C)(C)C5)nccc4o3)n2n1 [III-128, (2S)-1-({3-[4-(2,2-dimethylmorpholin-4-yl)furo[3,2-c]pyridin-2-yl]imidazo[1,2-b]pyridazin-6-yl}oxy)propan-2-amine] | 11.8 | 12.8 | –
O=C1CC[C@H](COc2ccc3ncc(-c4cc5c(N6CCOCC6)nccc5o4)n3n2)N1 [III-68, (5R)-5-[({3-[4-(Morpholin-4-yl)furo[3,2-c]pyridin-2-yl]imidazo[1,2-b]pyridazin-6-yl}oxy)methyl]pyrrolidin-2-one] | 0.7 | 0.5 | –
C[C@@H](N)COc1ccc2ncc(-c3cc4c(N5CCOC(C)(C)C5)nccc4o3)n2n1 [III-124, (2R)-1-({3-[4-(2,2-dimethylmorpholin-4-yl)furo[3,2-c]pyridin-2-yl]imidazo[1,2-b]pyridazin-6-yl}oxy)propan-2-amine] | 13.9 | 16.8 | –
COC[C@H]1CCCN1c1nccc2oc(-c3cnc4ccc(OC[C@@H]5COCCN5)nn34)cc12 [III-37, 3-{4-[(2R)-2-(Methoxymethyl)pyrrolidin-1-yl]furo[3,2-c]pyridin-2-yl}-6-[(3S)-morpholin-3-ylmethoxy]imidazo[1,2-b]pyridazine] | 11.1 | 1.1 | –
CC1(C)CN(c2nccc3oc(-c4cnc5ccc(OCC(F)(F)F)nn45)cc23)CCN1 [III-126, 3-[4-(3,3-dimethylpiperazin-1-yl)furo[3,2-c]pyridin-2-yl]-6-(2,2,2-trifluoroethoxy)imidazo [1,2-b]pyridazine] | 2.6 | 5.3 | –
O=C(CO)N1CCC[C@H]1CCOc1ccc2ncc(-c3cc4ccccc4o3)n2n1 [Example I-59, 1-[(2S)-2-(2-{[3-(1-Benzofuran-2-yl)imidazo[1,2-b]-pyridazin-6-yl]oxy}ethyl)pyrrolidin-1-yl]-2-hydroxyethanone] | – | – | IC50 (MKNK1 [1]; Table 2a): 5.3 nM; IC50 (MKNK1 [2]; Table 1a): 2.8 nM
CC(=O)N1CCN(c2nccc3oc(-c4cnc5ccc(OCCCS(C)(=O)=O)nn45)cc23)CC1 [III-51, 1-[4-(2-{6-[3-(Methylsulfonyl)propoxy]imidazo[1,2-b]pyridazin-3-yl}furo[3,2-c]pyridin-4-yl)piperazin-1-yl]ethanone] | 14.2 | 7.3 | –
C[C@H](N)COc1ccc2ncc(-c3cc4c(N5CCO[C@H](C)C5)cccc4o3)n2n1 [II-70, (2S)-1-[(3-{4-[(2R)-2-methylmorpholin-4-yl]-1-benzofuran-2-yl}imidazo[1,2-b]pyridazin-6-yl)oxy]propan-2-amine] | – | – | IC50 (MKNK1 [1]; Table 2b): 49.2 nM; IC50 (MKNK1 [2]; Table 1b): 41.4 nM
CCN(CCOC)c1nccc2oc(-c3cnc4ccc(O[C@H]5C[C@H](N)C5)nn34)cc12 [III-101, 2-{6-[(trans-3-Aminocyclobutyl)oxy]imidazo[1,2-b]pyridazin-3-yl}-N-ethyl-N-(2-methoxyethyl)furo[3,2-c]pyridin-4-amine] | 1.2 | 0.8 | –
C[C@@H]1COCCN1c1nccc2oc(-c3cnc4ccc(OC[C@@H]5CCC(=O)N5)nn34)cc12 [III-85, (5S)-5-{[(3-{4-[(3R)-3-Methylmorpholin-4-yl]furo[3,2-c]pyridin-2-yl}imidazo[1,2-b]pyridazin-6-yl)oxy]methyl}pyrrolidin-2-one] | 5.2 | 4.8 | –
COc1nccc2oc(-c3cnc4ccc(OCC5CCCC(=O)N5)nn34)cc12 (stereo not shown) [IV-9, 6-({[3-(4-Methoxyfuro[3,2-c]pyridin-2-yl)imidazo[1,2-b]pyridazin-6-yl]oxy}-methyl)piperidin-2-one] | – | – | IC50 (MKNK1 [1]; Table 2d): 9 nM; IC50 (MKNK1 [2]; Table 1d): 3 nM
C[C@H](N)COc1ccc2ncc(-c3cc4c(N5CCC(N(C)C)CC5)nccc4o3)n2n1 [III-21, 1-[2-(6-{[(2S)-2-Aminopropyl]oxy}imidazo[1,2-b]pyridazin-3-yl)furo[3,2-c]pyridin-4-yl]-N,N-dimethylpiperidin-4-amine] | 33.2 | 12 | –
C[C@H](CN)Oc1ccc2ncc(-c3cc4c(N5CCOCC5)nccc4o3)n2n1 [III-30, (2R)-2-({3-[4-(Morpholin-4-yl)furo[3,2-c]pyridin-2-yl]imidazo[1,2-b]pyridazin-6-yl}oxy)propan-1-amine] | 10.4 | 5 | –
CC(=O)NC[C@@H](C)Oc1ccc2ncc(-c3cc4ccccc4o3)n2n1 [Example I-80, N-[(2R)-2-{[3-(1-Benzofuran-2-yl)imidazo[1,2-b]pyridazin-6-yl]oxy}-propyl]acetamide] | – | – | IC50 (MKNK1 [1]; Table 2a): 47.7 nM; IC50 (MKNK1 [2]; Table 1a): 24.5 nM
COc1ccc2ncc(-c3cc4c(N5CCN(c6ccccc6)CC5)nccc4o3)n2n1 [III-91, 6-Methoxy-3-[4-(4-phenylpiperazin-1-yl)furo[3,2-c]pyridin-2-yl]imidazo[1,2-b]pyridazine] | 18.3 | 8.4 | –
CC1(C)CN(c2nccc3oc(-c4cnc5ccc(OC[C@@H]6CCC(=O)N6)nn45)cc23)CCN1 [III-134, (5S)-5-[({3-[4-(3,3-dimethylpiperazin-1-yl)furo[3,2-c]pyridin-2-yl]imidazo[1,2-b]pyridazin-6-yl}oxy)methyl]pyrrolidin-2-one] | 1 | 2 | –
O=C(C1CCC1)N1CCC[C@H]1CCOc1ccc2ncc(-c3cc4ccccc4o3)n2n1 [Example I-54, [(2S)-2-(2-{[3-(1-Benzofuran-2-yl)imidazo[1,2-b]-pyridazin-6-yl]oxy}ethyl)pyrrolidin-1-yl](cyclobutyl)methanone] | – | – | IC50 (MKNK1 [1]; Table 2a): 3.7 nM; IC50 (MKNK1 [2]; Table 1a): 2 nM
CCN(CCOC)c1nccc2oc(-c3cnc4ccc(OC[C@@H]5CCC(=O)N5)nn34)cc12 [III-86, (S)-5-{[(3-{4-[Ethyl(2-methoxyethyl)amino]furo[3,2-c]pyridin-2-yl}imidazo[1,2-b]pyridazin-6-yl)oxy]methyl}pyrrolidin-2-one] | 0.5 | 0.7 | –
CN1CCN(c2nccc3oc(-c4cnc5ccc(O[C@H]6C[C@@H](N)C6)nn45)cc23)CC1 [III-96, cis-3-({3-[4-(4-Methylpiperazin-1-yl)furo[3,2-c]pyridin-2-yl]imidazo[1,2-b]pyridazin-6-yl}oxy)cyclobutanamine] | 3.4 | 3.9 | –
C[C@@H](N)COc1ccc2ncc(-c3cc4c(N5CCOC(C)(C)C5)cccc4o3)n2n1 [II-35, (2R)-1-({3-[4-(2,2-dimethylmorpholin-4-yl)-1-benzofuran-2-yl]imidazo[1,2-b]pyridazin-6-yl}oxy)propan-2-amine] | – | – | IC50 (MKNK1 [1]; Table 2b): 49.6 nM; IC50 (MKNK1 [2]; Table 1b): 16.7 nM
COc1ccc2ncc(-c3cc4c(N5CCNC[C@@H]5C)cccc4o3)n2n1 [II-28, 6-methoxy-3-{4-[(2S)-2-methylpiperazin-1-yl]-1-benzofuran-2-yl}imidazo[1,2-b]pyridazine] | – | – | IC50 (MKNK1 [1]; Table 2b): 0.7 nM; IC50 (MKNK1 [2]; Table 1b): 5.1 nM
COC[C@H]1CCCN1c1nccc2oc(-c3cnc4ccc(OC[C@H](C)N)nn34)cc12 [III-24, (2S)-1-[(3-{4-[(2R)-2-(Methoxymethyl)pyrrolidin-1-yl]furo[3,2-c]pyridin-2-yl}imidazo[1,2-b]pyridazin-6-yl)oxy]propan-2-amine] | 8.6 | 0.4 | –
CCN(CCOC)c1nccc2oc(-c3cnc4ccc(OC[C@@H]5CCCN5)nn34)cc12 [III-139, N-ethyl-N-(2-methoxyethyl)-2-{6-[(2S)-pyrrolidin-2-ylmeth-oxy]imidazo[1,2-b]pyridazin-3-yl}furo[3,2-c]pyridin-4-amine] | 1.7 | 3 | –
CCN(CCOC)c1nccc2oc(-c3cnc4ccc(OC[C@@H](C)N)nn34)cc12 [III-4, 2-(6-{[(2R)-2-Aminopropyl]oxy}imidazo[1,2-b]pyridazin-3-yl)-N-ethyl-N-(2-methoxyethyl)furo[3,2-c]pyridin-4-amine] | 0.4 | 0.6 | –
CS(=O)(=O)CCCOc1ccc2ncc(-c3cc4c(N5CCC(CO)CC5)nccc4o3)n2n1 [III-57, [1-(2-{6-[3-(Methylsulfonyl)propoxy]imidazo[1,2-b]pyridazin-3-yl}furo[3,2-c]pyridin-4-yl)piperidin-4-yl]methanol] | 3.6 | 1.5 | –
C[C@@H]1CN(c2cccc3oc(-c4cnc5ccc(OC[C@H]6CCC(=O)N6)nn45)cc23)CCO1 [II-71, (5R)-5-{[(3-{4-[(2R)-2-methylmorpholin-4-yl]-1-benzofuran-2-yl}imidazo[1,2-b]pyridazin-6-yl)oxy]methyl}pyrrolidin-2-one] | – | – | IC50 (MKNK1 [1]; Table 2b): 6.1 nM; IC50 (MKNK1 [2]; Table 1b): 6.5 nM
O=C1CC[C@H](COc2ccc3ncc(-c4cc5c(N6CCOCC6)cccc5o4)n3n2)N1 [II-5, (5R)-5-[({3-[4-(Morpholin-4-yl)-1-benzofuran-2-yl]imidazo[1,2-b]pyridazin-6-yl}oxy)methyl]pyrrolidin-2-one] | – | – | IC50 (MKNK1 [1]; Table 2b): 27 nM; IC50 (MKNK1 [2]; Table 1b): 15 nM
COc1nccc2oc(-c3cnc4ccc(OC[C@H]5CN(C(=O)C(F)(F)F)CCO5)nn34)cc12 [IV-10, 2,2,2-Trifluoro-1-[(2R)-2-({[3-(4-methoxyfuro[3,2-c]pyridin-2-yl)imidazo-[1,2-b]pyridazin-6-yl]oxy}methyl)morpholin-4-yl]ethanone] | – | – | IC50 (MKNK1 [1]; Table 2d): 17 nM; IC50 (MKNK1 [2]; Table 1d): 7 nM
C[C@H](N)COc1ccc2ncc(-c3cc4c(N5CCO[C@@H](C)C5)cccc4o3)n2n1 [II-67, (2S)-1-[(3-{4-[(2S)-2-methylmorpholin-4-yl]-1-benzofuran-2-yl}imidazo[1,2-b]pyridazin-6-yl)oxy]propan-2-amine] | – | – | IC50 (MKNK1 [1]; Table 2b): 56.3 nM; IC50 (MKNK1 [2]; Table 1b): 23.5 nM
